This is an account of results in ChEMBL document CHEMBL5465560, “Selectivity Literature for EUbOPEN Chemogenomic Library” (2024).

Assay [1] deals with T1, Serine/threonine-protein kinase TAO1 (Homo sapiens) (UniProt Q7L7X3).
T1 sequence (whole entry): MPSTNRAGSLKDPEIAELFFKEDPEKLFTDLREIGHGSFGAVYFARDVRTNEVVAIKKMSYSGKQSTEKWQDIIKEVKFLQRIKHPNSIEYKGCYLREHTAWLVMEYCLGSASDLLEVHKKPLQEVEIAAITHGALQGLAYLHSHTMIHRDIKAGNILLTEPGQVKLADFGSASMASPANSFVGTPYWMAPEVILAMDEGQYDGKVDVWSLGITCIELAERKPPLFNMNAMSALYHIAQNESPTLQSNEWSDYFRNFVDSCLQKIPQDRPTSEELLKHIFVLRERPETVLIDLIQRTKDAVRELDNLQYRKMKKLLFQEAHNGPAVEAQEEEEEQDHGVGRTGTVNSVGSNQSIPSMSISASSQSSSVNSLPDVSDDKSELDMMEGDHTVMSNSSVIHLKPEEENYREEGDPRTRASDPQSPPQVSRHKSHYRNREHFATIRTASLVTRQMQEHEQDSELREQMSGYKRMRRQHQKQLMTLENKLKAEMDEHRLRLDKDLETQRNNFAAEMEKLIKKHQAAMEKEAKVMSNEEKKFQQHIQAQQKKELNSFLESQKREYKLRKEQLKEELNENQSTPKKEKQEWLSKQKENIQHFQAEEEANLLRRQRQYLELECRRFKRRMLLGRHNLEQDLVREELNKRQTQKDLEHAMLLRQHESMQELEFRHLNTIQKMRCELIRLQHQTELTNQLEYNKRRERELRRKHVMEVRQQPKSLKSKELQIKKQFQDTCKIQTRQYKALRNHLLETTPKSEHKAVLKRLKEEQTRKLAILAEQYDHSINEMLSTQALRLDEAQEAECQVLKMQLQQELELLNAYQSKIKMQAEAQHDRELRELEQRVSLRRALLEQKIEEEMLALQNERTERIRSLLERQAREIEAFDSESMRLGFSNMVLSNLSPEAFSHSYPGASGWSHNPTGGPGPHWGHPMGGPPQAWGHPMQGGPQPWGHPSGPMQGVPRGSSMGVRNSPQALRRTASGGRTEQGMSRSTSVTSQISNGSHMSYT
In words: Selectivity interaction (KinomeScan (DiscoverX)) EUB0000655a TAOK1. The settings on record: at 10 µM.

Assay [2] addresses T2, Serine/threonine-protein kinase 17B (Homo sapiens) (UniProt O94768).
T2 sequence (whole entry): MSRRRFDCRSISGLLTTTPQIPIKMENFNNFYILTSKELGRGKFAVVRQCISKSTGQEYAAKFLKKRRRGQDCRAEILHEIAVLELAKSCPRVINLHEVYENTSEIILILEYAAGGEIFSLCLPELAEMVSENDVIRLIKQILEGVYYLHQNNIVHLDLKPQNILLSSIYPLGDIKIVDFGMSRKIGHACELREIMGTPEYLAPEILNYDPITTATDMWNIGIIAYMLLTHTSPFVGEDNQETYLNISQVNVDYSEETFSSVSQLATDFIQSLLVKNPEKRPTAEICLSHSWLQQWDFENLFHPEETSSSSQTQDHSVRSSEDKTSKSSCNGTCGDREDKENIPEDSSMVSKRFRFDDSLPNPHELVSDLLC
Put plainly: Selectivity interaction (KinomeScan (DiscoverX)) EUB0000045b STK17B.

Assay [3] addresses Platelet-derived growth factor receptor alpha (Homo sapiens, UniProt P16234). Put plainly: Selectivity interaction (Kinase panel (Enzyme activity assay)) EUB0000612a PDGFRA.
Assay [4] deals with T3, Phosphatidylinositol 4,5-bisphosphate 3-kinase catalytic subunit delta isoform (Homo sapiens) (UniProt O00329).
T3 sequence (whole entry): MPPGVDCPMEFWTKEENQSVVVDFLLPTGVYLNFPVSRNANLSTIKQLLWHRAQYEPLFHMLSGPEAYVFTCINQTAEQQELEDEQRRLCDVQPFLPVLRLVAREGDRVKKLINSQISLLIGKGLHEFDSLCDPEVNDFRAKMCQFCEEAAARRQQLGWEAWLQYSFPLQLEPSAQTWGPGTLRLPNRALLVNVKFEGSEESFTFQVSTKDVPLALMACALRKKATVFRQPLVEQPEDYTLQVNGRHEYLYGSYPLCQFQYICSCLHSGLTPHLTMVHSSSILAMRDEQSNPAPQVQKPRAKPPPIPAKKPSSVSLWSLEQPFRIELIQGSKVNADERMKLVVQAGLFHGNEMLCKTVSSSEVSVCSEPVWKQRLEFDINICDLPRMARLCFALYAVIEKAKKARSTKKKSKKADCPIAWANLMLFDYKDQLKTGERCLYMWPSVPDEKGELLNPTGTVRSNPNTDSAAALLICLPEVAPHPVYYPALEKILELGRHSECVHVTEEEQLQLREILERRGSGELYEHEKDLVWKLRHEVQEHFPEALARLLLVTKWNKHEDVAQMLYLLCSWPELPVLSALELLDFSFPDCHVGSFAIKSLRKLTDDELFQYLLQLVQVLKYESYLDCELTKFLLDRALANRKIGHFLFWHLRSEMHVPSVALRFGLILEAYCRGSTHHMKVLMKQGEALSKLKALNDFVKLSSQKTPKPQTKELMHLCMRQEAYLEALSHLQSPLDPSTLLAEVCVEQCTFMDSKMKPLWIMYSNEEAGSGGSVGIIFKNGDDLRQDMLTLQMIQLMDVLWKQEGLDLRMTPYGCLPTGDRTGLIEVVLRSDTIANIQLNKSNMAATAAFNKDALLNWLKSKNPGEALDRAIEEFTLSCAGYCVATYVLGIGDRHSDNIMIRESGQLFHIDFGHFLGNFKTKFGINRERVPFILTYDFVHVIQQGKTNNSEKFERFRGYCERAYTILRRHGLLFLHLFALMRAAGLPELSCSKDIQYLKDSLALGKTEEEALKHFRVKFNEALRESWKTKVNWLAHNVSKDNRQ
In words: Selectivity interaction (Kinase panel (KiNativ target engagement assay in Jurkat cells)) EUB0001635a PIK3CD. The format is cell-based. The settings on record: Selectivity number of off-targets 0.0, Selectivity number of targets 233.0, Source Knowledge https://www.sciencedirect.com/science/article/pii/S2451945619300674?via%3Dihub, at 1 µM.

In assay [5] the target is Mitogen-activated protein kinase 14 (Homo sapiens, UniProt Q16539). The settings on record: at 10 µM.
Sequence of Mitogen-activated protein kinase 14 (Q16539 whole entry): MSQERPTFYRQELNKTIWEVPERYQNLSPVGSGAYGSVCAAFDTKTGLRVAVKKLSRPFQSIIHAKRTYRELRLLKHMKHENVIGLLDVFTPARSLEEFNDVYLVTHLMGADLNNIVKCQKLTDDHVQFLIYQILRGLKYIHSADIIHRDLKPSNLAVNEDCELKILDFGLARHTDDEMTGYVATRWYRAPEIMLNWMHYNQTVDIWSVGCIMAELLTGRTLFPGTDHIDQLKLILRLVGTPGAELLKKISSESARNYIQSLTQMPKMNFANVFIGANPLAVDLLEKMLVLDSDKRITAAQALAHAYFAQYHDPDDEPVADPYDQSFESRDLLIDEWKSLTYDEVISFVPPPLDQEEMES

Sequence of Platelet-derived growth factor receptor alpha (P16234 whole entry, canonical isoform): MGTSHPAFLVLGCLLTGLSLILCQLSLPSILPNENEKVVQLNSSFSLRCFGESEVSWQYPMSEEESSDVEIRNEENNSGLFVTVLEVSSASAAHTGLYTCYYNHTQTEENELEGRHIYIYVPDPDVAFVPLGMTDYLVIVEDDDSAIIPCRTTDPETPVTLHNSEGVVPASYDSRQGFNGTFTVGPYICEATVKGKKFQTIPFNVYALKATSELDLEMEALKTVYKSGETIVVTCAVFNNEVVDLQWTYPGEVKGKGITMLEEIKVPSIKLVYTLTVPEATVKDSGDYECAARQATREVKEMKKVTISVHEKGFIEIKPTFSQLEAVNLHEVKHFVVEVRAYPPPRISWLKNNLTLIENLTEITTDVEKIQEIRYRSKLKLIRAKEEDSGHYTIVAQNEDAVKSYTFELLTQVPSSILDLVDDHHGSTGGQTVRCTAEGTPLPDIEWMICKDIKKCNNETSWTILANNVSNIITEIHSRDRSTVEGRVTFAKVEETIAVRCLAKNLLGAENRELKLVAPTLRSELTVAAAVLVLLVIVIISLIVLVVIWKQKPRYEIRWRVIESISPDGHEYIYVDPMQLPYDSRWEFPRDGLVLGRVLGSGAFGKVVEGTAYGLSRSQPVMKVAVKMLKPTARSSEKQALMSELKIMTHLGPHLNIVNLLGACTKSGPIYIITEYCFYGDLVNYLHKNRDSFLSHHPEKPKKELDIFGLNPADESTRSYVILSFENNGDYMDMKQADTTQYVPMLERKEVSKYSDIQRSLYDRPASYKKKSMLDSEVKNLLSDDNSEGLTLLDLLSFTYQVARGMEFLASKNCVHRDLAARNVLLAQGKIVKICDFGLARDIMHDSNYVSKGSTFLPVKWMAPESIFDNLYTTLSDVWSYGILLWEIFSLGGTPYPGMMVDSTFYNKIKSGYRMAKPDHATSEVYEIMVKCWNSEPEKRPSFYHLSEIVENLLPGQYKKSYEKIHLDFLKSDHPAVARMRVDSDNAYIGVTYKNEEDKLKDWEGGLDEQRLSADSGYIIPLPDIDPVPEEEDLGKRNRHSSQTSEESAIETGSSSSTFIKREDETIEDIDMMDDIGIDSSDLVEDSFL

With `CN(C)CCOc1ccc(-c2nc(-c3ccncc3)c(-c3ccc4c(c3)CC/C4=N\O)[nH]2)cc1`, the % of control in assay [1] is 81%.
With `C=CC(=O)Nc1cc(-n2c(=O)ccc3cnc4ccc(-c5ccc(NS(C)(=O)=O)cc5)cc4c32)ccc1C`, the % of control in assay [2] (at 1 µM) and in assay [2] (at 10 µM) was 100% in each case.
Take `CCc1cccc(CC)c1NC(=O)c1nn(C)c2c1CCc1cnc(Nc3ccc(C(=O)NC4CCN(C)CC4)cc3OC(F)(F)F)nc1-2`: the IC50 (in general, the concentration needed to halve the response being measured) in assay [3] was above 10 µM.
Take `C=CC(=O)Nc1ccc(C(=O)Nc2[nH]nc3c2CN(C(=O)N[C@H](CN(C)C)c2ccccc2)C3(C)C)cc1`: the % of engagement in assay [4] is -6.8%.
The compound `O[C@H]1CC[C@H](Nc2ncc3nc(Nc4c(F)cc(F)cc4F)n([C@H]4CCOC4)c3n2)CC1` gave a % of control in assay [5] of 3.4%.
